Assay results: patent publication US20130023553A1, “PEGYLATED OPIOIDS WITH LOW POTENTIAL FOR ABUSE AND SIDE EFFECTS” (Nektar Therapeutics, priority 2010, published 2013)
Where two headings read alike, the source gives them in different places.

Assays:
[1] = Pharmacokinetics following intravenous (IV) dosing; format: in vivo, Sprague-Dawley rats; design: Cmax: unit: ng/mL; conditions: for Vd: read-out: Vss
Excerpt: (§1) There were 3 rats/group. All animals were food fasted overnight. […] The predose sample was collected from the JVC.
(§2) Following the last collection point, the animals were euthanized.

[2] = Pharmacokinetics following oral (PO) dosing; format: in vivo, Sprague-Dawley rats; design: Cmax: unit: ng/mL
Excerpt: as §1, §2

[3] = biological target: T1, human mu opioid receptor (Homo sapiens, UniProt P35372); assay: biochemical; format: binding
T1 construct: expressed in transfected cells; host or cells: CHO cells
Method: Radioligand displacement was measured using scintillation proximity assays (SPA).
Briefly, serial dilutions of the test compounds were placed in a 96-well plate to which were added SPA beads, membrane and radioligand. The assay conditions for each opioid receptor subtype are described in Table 10 below. The plates were incubated for 8 hours-overnight at room temperature, spun at 1000 rpm to pellet the SPA beads, and radioactivity was measured using the TopCount® microplate Scintillation counter. Specific binding at each concentration of test compound was calculated by subtracting the non-specific binding measured in the presence of excess cold ligand. IC50 values were obtained by non-linear regression of specific binding versus concentration curves and Ki values were calculated using Kd values that were experimentally pre-determined for each lot of membrane preparations.

[4] = biological target: T1, human mu opioid receptor; assay: cell-based; conditions: for Emax: read-out: % max effect, mu opioid receptor
Method: Studies were conducted in CHO cells heterologously expressing the cloned human mu, kappa or delta opioid receptors. cAMP was measured using a cAMP HiRange homogenous time-resolved fluorescence assay (HTRF Assay), that is based on a competitive immunoassay principle (Cisbio, Cat.#62AM6PEC).
Briefly, suspensions of cells expressing either the mu, kappa or delta opioid receptors were prepared in buffer containing 0.5 mM isobutyl-methyl xanthine (IBMX). […] EC50 values were calculated for each compound from a sigmoidal dose-response plot of concentrations versus maximum response. To determine if the compounds behaved as full or partial agonists in the system, the maximal response at the highest tested concentrations of compounds were compared to that produced by a known full agonist.

[5] = test system: squirrel monkeys; assay: Monkey self-administration model of addictive potential
Excerpt: Dose-related effects of the test articles were examined, using two or more doses of each drug in 3-4 subjects in a double alternation schedule in which each unit dose (or vehicle) was used in two consecutive sessions before a change in unit dose.
Addictive potential of opioid compounds and opioid conjugates of the invention may be assessed through the use of squirrel monkey models as known in the art.
Under the double alternation schedule, each unit dose (or vehicle) was available for intravenous self-administration for two consecutive sessions before the unit dose was changed. In this way, it was possible to establish the function relating unit dose of intravenous drug to (i) number of injections per session, and/or (ii) the percentage of total responses that occur on the lever leading to self-administration (injection-lever responding, % ILR). Unit doses of drugs ranged from 0.01 to 3.2 mg/kg/injection.

[6] = male, Sprague-Dawley, rat, plasma, hydroxycodone series, 1 mg/kg IV, Mean ± SD
[7] = male, Sprague-Dawley, rat, plasma, hydroxycodone series, 1 mg/kg IV, Mean ± SD, read-out: Cmax
[8] = male, Sprague-Dawley, rat, plasma, hydroxycodone series, 1 mg/kg IV, Mean ± SD, read-out: T1/2(z)
[9] = male, Sprague-Dawley, rat, plasma, po, 5 mg/kg
[10] = male, Sprague-Dawley, rat, plasma, hydroxycodone series, 5.0 mg/kg oral, Mean ± SD
[11] = CHO-K1 membranes, [3H]DAMGO 6 nM, read-out: Ki, Mu opioid receptor
[12] = maximal response at the highest tested concentration
[13] = read-out: EC50, mu opioid receptor
[14] = codeine series, 5 mg/kg oral, Mean ± SD
[15] = male, Sprague-Dawley, rat, plasma, iv, 1 mg/kg

T1 sequence (P35372 whole entry): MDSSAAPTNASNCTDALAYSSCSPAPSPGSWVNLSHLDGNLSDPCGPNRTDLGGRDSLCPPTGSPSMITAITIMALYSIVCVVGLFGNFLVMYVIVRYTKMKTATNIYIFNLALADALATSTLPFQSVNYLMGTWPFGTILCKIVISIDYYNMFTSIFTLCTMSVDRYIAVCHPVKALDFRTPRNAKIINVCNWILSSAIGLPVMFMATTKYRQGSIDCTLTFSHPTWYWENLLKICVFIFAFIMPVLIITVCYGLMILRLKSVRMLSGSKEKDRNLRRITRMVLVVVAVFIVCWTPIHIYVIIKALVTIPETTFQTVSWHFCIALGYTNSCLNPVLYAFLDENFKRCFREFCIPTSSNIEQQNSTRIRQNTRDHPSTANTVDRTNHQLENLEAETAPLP

`COCCOCCOC1CCC2(O)C3Cc4ccc(OC)c5c4C2(CCN3C)C1O5` (stereo not drawn) [α-6-mPEG2-O-hydroxycodone, α-6-mPEG2-O-oxycodone] showed an AUC [1, 6] of 200 ng·h/mL, an AUC(0-inf) [1, 6] of 203 ng·h/mL and an MRT last [1, 6] of 37 min. It also gave a clearance [1, 6] of 83.3 ± 10.8 mL/min/kg, a Cmax [1, 7] of 513 ± 48.8 ng/mL and a half-life [1, 8] of 44.6 ± 1.8 min. The Vd [1, 6] was 3.36 ± 0.298 L/kg, the bioavailability [2, 9] was 9.4% and the AUC [2, 10] was 98.5 ng·h/mL. For the same compound, the MRT last [2, 10] was 55.4 min, the AUC(0-inf) ([2]; male, Sprague-Dawley, rat, plasma, hydroxycodone series, 5.0 mg/kg oral, Mean ± SD, * n = 2) was 97.2 ng·h/mL and the half-life ([2]; male, Sprague-Dawley, rat, plasma, hydroxycodone series, 5.0 mg/kg oral, Mean ± SD, * n = 2, read-out: T1/2(z)) was 48.5 ± 12 min. For the same compound, the Cmax ([2]; male, Sprague-Dawley, rat, plasma, hydroxycodone series, 5.0 mg/kg oral, Mean ± SD, read-out: Cmax) was 99.4 ± 47.3 ng/mL, the Tmax ([2]; male, Sprague-Dawley, rat, plasma, hydroxycodone series, 5.0 mg/kg oral, median value, read-out: Tmax (converted)) was 15 min and the Ki [3, 11] was 632 nM. For the same compound, the Emax [4, 12] was 101% and the EC50 [4, 13] was 5010 nM.
With `COCCOCCOCCOCCOCCOCCOC1C=CC2C3Cc4ccc(O)c5c4C2(CCN3C)C1O5` (stereo not drawn) [α-6-mPEG6-O-morphine] the Ki [3] was 73 nM, the EC50 [4] was 415 nM and the Emax [4] was 98%.
`COc1ccc2c3c1O[C@H]1[C@@H](O)C=C[C@H]4[C@@H](C2)N(C)CC[C@@]341` [Codeine, codeine, reference compound] showed an AUCall ([1]; codeine series, 1 mg/kg IV) of 11000 ± 1600 ng·min/mL, an AUCinf ([1]; codeine series, 1 mg/kg IV) of 11400 ± 2070 ng·min/mL and a CL ([1]; codeine series, 1 mg/kg IV) of 89.7 ± 15.3 mL/min/kg. For the same compound, the Cmax ([1]; codeine series, 1 mg/kg IV) was 469 ± 20.4 ng/mL, the MRTlast ([1]; codeine series, 1 mg/kg IV) was 40.2 ± 9.08 min and the Vss ([1]; codeine series, 1 mg/kg IV) was 4.14 ± 0.700 L/kg. For the same compound, the AUCall [2, 14] was 328 ± 216 ng·min/mL, the Cmax [2, 14] was 6.24 ± 2.51 ng/mL and the MRTlast [2, 14] was 33.2 ± 12.9 min. For the same compound, the AUCinf ([2]; codeine series, 5 mg/kg oral, Mean ± SD, # n = 1, * n = 2) was 431^# min · ng/mL, the Tmax ([2]; codeine series, 5 mg/kg oral, median value) was 15.0 min and the F % ([2]; codeine series, oral bioavailability, 5 mg/kg oral vs 1 mg/kg IV) was 0.60%.
For `COCCOC1C=CC2C3Cc4ccc(O)c5c4C2(CCN3C)C1O5` (stereo not drawn) [α-6-mPEG1-O-morphine], the Ki [3] was 15.7 nM, the EC50 [4] was 85 nM and the Emax [4] was 91%.
Work on `COCCOCCOCCOCCOCCOC1CCC2(O)C3Cc4ccc(OC)c5c4C2(CCN3C)C1O5` (stereo not drawn) [α-6-mPEG5-O-hydroxycodone, α-6-mPEG5-O-oxycodone] yielded an AUC [1, 6] of 282 ng·h/mL, an AUC(0-inf) [1, 6] of 295 ng·h/mL and an MRT last [1, 6] of 46.2 min. It also gave a clearance [1, 6] of 57 ± 6.07 mL/min/kg, a Cmax [1, 7] of 622 ± 39.7 ng/mL and a half-life [1, 8] of 62.1 ± 3.85 min. It also gave a Vd [1, 6] of 3.3 ± 0.184 L/kg, a Ki [3, 11] of 1860 nM and an Emax [4, 12] of 108%. It also gave an EC50 [4, 13] of 5040 nM.
With `COCCOCCOCCOC1CCC2(O)C3Cc4ccc(OC)c5c4C2(CCN3C)C1O5` (stereo not drawn) [α-6-mPEG3-O-hydroxycodone, α-6-mPEG3-O-oxycodone] the “subjects showing addictive behavior” value ([5]; 0.1 mg/kg/injection) was 25%, the “subjects showing addictive behavior” value ([5]; 0.3 mg/kg/injection) was 50% and the “subjects showing addictive behavior” value ([5]; 1 mg/kg/injection) was 100%. For the same compound, the AUC [1, 6] was 230 ng·h/mL, the AUC(0-inf) [1, 6] was 233 ng·h/mL and the MRT last [1, 6] was 32.5 min. It also gave a clearance [1, 6] of 71.7 ± 4.99 mL/min/kg, a Cmax [1, 7] of 746 ± 2.08 ng/mL and a half-life [1, 8] of 48.5 ± 7.83 min. It also gave a Vd [1, 6] of 2.62 ± 0.206 L/kg, a Ki [3, 11] of 775 nM and an Emax [4, 12] of 108%. For the same compound, the EC50 [4, 13] was 2830 nM.
Work on `COc1ccc2c3c1OC1C(O)CCC4(O)C(C2)N(C)CCC314` (stereo not drawn) [Hydroxycodone, α-6-hydroxycodone, reference compound] yielded an EC50 [4, 13] of 3160 nM.
Work on `COCCOCCOCCOCCOCCOCCOCCOCCOCCOC1C=CC2C3Cc4ccc(OC)c5c4C2(CCN3C)C1O5` (stereo not drawn) [α-6-mPEG9-O-codeine] yielded an AUC [1, 15] of 297 ng·h/mL, an AUC(0-inf) [1, 15] of 347 ng·h/mL and an MRT last [1, 15] of 57.2 min. For the same compound, the clearance [1, 15] was 48.6 ± 6.74 mL/min/kg, the Cmax ([1]; male, Sprague-Dawley, rat, plasma, iv, 1 mg/kg, read-out: Cmax) was 730 ± 68 ng/mL and the half-life ([1]; male, Sprague-Dawley, rat, plasma, iv, 1 mg/kg, read-out: T1/2(2)) was 109 ± 1.8 min. For the same compound, the Vd [1, 15] was 5.18 ± 0.538 L/kg, the AUC [2, 9] was 122 ng·h/mL and the AUC(0-inf) [2, 9] was 114 ng·h/mL. It also gave an MRT last [2, 9] of 179 min, a bioavailability [2, 9] of 8.22% and a Cmax ([2]; male, Sprague-Dawley, rat, plasma, po, 5 mg/kg, read-out: Cmax) of 31.5 ± 8.43 ng/mL. The half-life ([2]; male, Sprague-Dawley, rat, plasma, po, 5 mg/kg, read-out: T1/2(2)) was 143 min, the Tmax ([2]; male, Sprague-Dawley, rat, plasma, po, 5 mg/kg, read-out: Tmax (converted)) was 15 min and the Ki [3, 11] was 9980 nM. The Emax [4, 12] was 80% and the EC50 [4, 13] was 48200 nM.
